Residues, ends and D or L forms follow the SMILES beside them.
System: clinical HCMV isolates
Assay: Infection assays with clinical isolates on HFF
Type: cell-based, Human Cytomegalovirus
Description: The antiviral activity of HD5 (1-9) (SEQ ID No. 1) in concentrations from 1.56 μM to 100 μM against infection with clinical HCMV isolates was investigated on HFF. In addition to the laboratory-adapted strain TB40/E-ΔUL16-eGFP, which served as reference strain, a breast milk-derived strain, an amniotic fluid-isolated strain and a multidrug-resistant viral isolate from leukocytes of a recipient after the third stem cell transplantation were used. The therapy-naïve strain from cell free milk whey (H1241-2016) was derived from a […] of a preterm infant 10 weeks postpartum during end of viral reactivation. The amnion fluid derived virus strain (H2497-2011) was isolated following termination of pregnancy based on severe fetal brain damage. The multidrug resistant CMV isolate (H815-2006) is already described (Gohring et al., “Dynamics of coexisting HCMV-UL97 and UL54 drug-resistance associated mutations in patients after haematopoietic cell transplantation”, J. Clin. Virol. 57(1):43-49, 2013). […] All viral isolates were primarily HFF-adapted and propagated in vitro with at least 10 passages to get TCID values of cell free viral supernatants of […].
Next, a peptide of the invention, i.e. HD5 (1-9) was tested on clinical HCMV isolates. 10 000 HFF were seeded into each well of a 96-well-plate containing 200 μl of medium. Cells were incubated overnight at 37° C. and 5% CO2. Next day medium was changed to medium without P/S. Cells were infected with different clinical HCMV isolates (MOI 0,2) and treated with peptide in concentrations from 1.56 μM to 100 μM in a volume of 100 μl. After 40 h of incubation cells were fixed with 2% PFA in PBS and permeabilised with 90% methanol in H2O. Afterwards an antibody staining for IE-antigens was performed and nuclei were stained with DAPI. Infection rate was analysed (IE+/DAPI+, normalized to medium control, n=1).
HCMV TB40/E is a lab-adapted strain that might differ from primary HCMV isolates in terms of cellular tropism, infectivity or cytopathic properties. […]

C[C@H](N)C(=O)N[C@H](C(=O)N[C@@H](CS)C(=O)N[C@@H](Cc1ccc(O)cc1)C(=O)N[C@@H](CS)C(=O)N[C@@H](CCCNC(=N)N)C(=O)N[C@H](C(=O)NCC(=O)N[C@@H](CCCNC(=N)N)C(=O)O)[C@@H](C)O)[C@@H](C)O [HD5 (1-9), ATCYCRTGR] (H-ATCYCRTGR-OH; N-terminus and C-terminus assumed)
inhibition of HCMV infection (100 μM in HFF, MOI 0.2 and 0.1): inhibited HCMV infection efficiently
concentration at which inhibition of infection with all clinical isolates starts (HFF, 40 h): ≥ 50 µM
inhibition of infection with primary isolates (amniotic fluid, breast milk, multiresistant leukocyte isolate) (HFF, MOI 0.2 and 0.1): sensitive towards inhibition
